Reference: patent US7781565B2 (priority 2006, dated 2010)
Entries after “also recorded” stand apart in the source; their conditions may differ.

System: NCI-60 cell lines
Assay type: cell-based, human

| Substance | Cell Line (NCI-60 cell line the peptide and its motif are associated with) | Cell Line (NCI-60 cell line the peptide is associated with) | Cell Line the peptide is associated with (peptide recovered from phage library selection on this NCI-60 cell line) | Cell Line with which the peptide (and its tripeptide motif) is associated |
| --- | --- | --- | --- | --- |
| IAMAGLR | SK-MEL-2 Melanoma | – | – | – |
| IDLGRVN | SK-MEL-5 Melanoma | – | – | – |
| IDLVSPG | OVCAR-8 Ovarian | – | – | – |
| IFGAGLR | – | LOX-IMVI Melanoma | – | – |
| IGAASWF | – | – | MCF-7 Breast | – |
| IGASLLG | – | SF-268 CNS | – | – |
| IGAVSGW | – | SNB-75 CNS | – | – |
| IGGREIT | – | – | – | H23-Lung |
| IGGRWVV | SK-OV-3-3 Ovarian | – | – | – |
| IGLRGEN | – | SNB-75 CNS | – | – |
| IGRLLPL | – | – | – | HL-60-Leukemia |
| IGSGVGV | – | – | NCI/ADR-RES Breast | – |
| IGVLASA | SK-MEL-28 Melanoma | – | – | – |
| IGVRGAV | – | MALME-3M Melanoma | – | – |
| IGVRGFF | – | – | – | Molt-4-Leukemia |
| IGWGVLG | – | – | BT-549 Breast | – |
| IHRGVWG | 786-0 Renal | – | – | – |
| ILSDLVS | – | – | SN12C Renal | – |
| INRGSRE | SK-MEL-28 Melanoma | – | – | – |
| INWAGLS | – | – | – | Hop-92-Lung |
| IRVSAVV | – | – | HS 578 T Breast | – |
| ISGVSDD | – | – | BT-549 Breast | – |
| ISPRSSG | – | HCT-15 Colon | – | – |

| Substance | Cell Line (NCI-60 cell line the peptide and its motif are associated with) | Cell Line (NCI-60 cell line the peptide is associated with) | Cell Line the peptide is associated with (peptide recovered from phage library selection on this NCI-60 cell line) | Cell Line with which the peptide (and its tripeptide motif) is associated |
| --- | --- | --- | --- | --- |
| IYGGLVI | SK-MEL-5 Melanoma | – | – | – |
| IYPGAVL | OVCAR-5 Ovarian | – | – | – |
| KAASTED | – | – | SN12C Renal | – |
| KGDGSVR | SK-OV-3-3 Ovarian | – | – | – |
| KGRVSAG | – | SNB-19 CNS; also recorded: SF-539 CNS | – | – |
| KGSVLML | – | – | NCI/ADR-RES Breast | – |
| KMRIAGR | – | – | SN12C Renal | – |
| KRAVGRM | A498 Renal | – | – | – |
| KRESGLG | – | – | – | Hop-62-Lung |
| KSGLRPA | – | – | – | EKVX-Lung |
| KSGSSVL | – | – | – | HL-60-Leukemia |
| KVSVASL | SK-MEL-5 Melanoma | – | – | – |
| KVVGRLG | – | HCT-116 Colon | – | – |
| KYYGLRR | – | – | – | RPMI-8226-Leukemia |
| LAAGGEL | – | – | – | RPMI-8226-Leukemia |
| LACRGPS | PC3 Prostate | – | – | – |
| LAGGVPG | – | – | – | CCRF-CEM Leukemia |
| LAGGWGS | – | SF-295 CNS | – | – |
| LAGLVSG | – | HT-29 Colon | – | – |
| LAGMRGS | UACC62 Melanoma | – | – | – |
| LAGRASE | OVCAR-4 Ovarian | – | – | – |
| LAGSGSH | – | – | – | Molt-4-Leukemia |
| LAGSRVS | OVCAR-4 Ovarian | – | – | – |

| Substance | Cell Line (NCI-60 cell line the peptide and its motif are associated with) | Cell Line (NCI-60 cell line the peptide is associated with) | Cell Line the peptide is associated with (peptide recovered from phage library selection on this NCI-60 cell line) | Cell Line with which the peptide (and its tripeptide motif) is associated |
| --- | --- | --- | --- | --- |
| LAGSTRR | – | – | – | SR Leukemia |
| LAIRGLG | – | SW620-Colon | – | – |
| LAQGRLA | – | HT-29 Colon | – | – |
| LARGVPP | M14 Melanoma | – | – | – |
| LASLARP | – | – | T-47D Breast | – |
| LASLGVG | – | – | – | H23-Lung |
| LCDAGPS | – | HCT-116 Colon | – | – |
| LDRSGGL | – | HCT-116 Colon | – | – |
| LEAGSQL | – | – | – | H226-Lung |
| LEGVRLF | – | – | – | Hop-62-Lung |
| LELGRLL | – | – | – | HL-60-Leukemia |
| LELLSVV | – | SNB-75 CNS | – | – |
| LERAVRT | – | HT-29 Colon | – | – |
| LEVGRLF | SK-OV-3-3 Ovarian | – | – | – |
| LFAVAAV | – | – | – | Hop-62-Lung |
| LFGSSVS | – | – | SN12C Renal | – |
| LFHTRSS | IGROV1 Ovarian | – | – | – |
| LFRWGGR | SK-MEL-28 Melanoma | – | – | – |
| LGAGEGD | – | SNB-75 CNS | – | – |
| LGAGMIA | OVCAR-8 Ovarian | – | – | – |
| LGASLLV | – | – | RXF393 Renal | – |
| LGGAAVR | – | – | T-47D Breast | – |
| LGGARGV | – | – | MDA-MB-231 Breast | – |

| Substance | Cell Line (NCI-60 cell line the peptide and its motif are associated with) | Cell Line (NCI-60 cell line the peptide is associated with) | Cell Line the peptide is associated with (peptide recovered from phage library selection on this NCI-60 cell line) | Cell Line with which the peptide (and its tripeptide motif) is associated |
| --- | --- | --- | --- | --- |
| LGGGGLL | – | KM-12C Colon | – | – |
| LGGLGIH | – | SF-295 CNS | – | – |
| LGGLGLS | OVCAR-5 Ovarian | – | – | – |
| LGGLGLY | DU-145 Prostate | – | – | – |
| LGGLSER | SK-OV-3-3 Ovarian | – | – | – |
| LGGLSPH | – | – | – | H322-Lung |
| LGGRADF | – | – | – | CCRF-CEM Leukemia |
| LGGRLSL | – | – | MDA-MB-231 Breast | – |
| LGGRQES | – | – | ACHN Renal | – |
| LGGRTIS | DU-145 Prostate | – | – | – |
| LGGSGRR | – | – | – | H23-Lung |
| LGGSRDL | – | HCT-116 Colon | – | – |
| LGLRAFV | – | – | – | H322-Lung |
| LGLRGGA | – | SF-268 CNS | – | – |
| LGLRGWT | – | – | ACHN Renal | – |
| LGLSGLG | – | – | NCI/ADR-RES Breast | – |
| LGLVFTR | – | – | T-47D Breast | – |
| LGLVHWV | – | – | MDA-MB-231 Breast | – |
| LGLVSTT | – | HT-29 Colon | – | – |
| LGMGRGV | – | – | SN12C Renal | – |
| LGQCGRV | – | – | – | HL-60-Leukemia |
| LGRVHVW | – | HT-29 Colon | – | – |
| LGSSGLR | – | – | RXF393 Renal | – |

| Substance | Cell Line (NCI-60 cell line the peptide and its motif are associated with) | Cell Line (NCI-60 cell line the peptide is associated with) | Cell Line the peptide is associated with (peptide recovered from phage library selection on this NCI-60 cell line) | Cell Line with which the peptide (and its tripeptide motif) is associated |
| --- | --- | --- | --- | --- |
| LGSSRVL | – | – | – | Hop-92-Lung |
| LGSSSHI | – | – | NCI/ADR-RES Breast | – |
| LGTAVSS | – | SF-268 CNS | – | – |
| LGVRASP | – | – | BT-549 Breast | – |
| LGVREVG | – | – | HS 578 T Breast | – |
| LGVRLAS | – | – | BT-549 Breast | – |
| LGYYGAV | – | – | T-47D Breast | – |
| LHAGSSV | – | – | MDA-MB-231 Breast | – |
| LIGGLLS | SK-MEL-5 Melanoma | – | – | – |
| LIGGRNA | – | HCT-116 Colon | – | – |
| LIGGVLH | IGROV1 Ovarian | – | – | – |
| LIGPGGR | – | – | – | H322-Lung |
| LIGRASM | SK-OV-3-3 Ovarian | – | – | – |
| LIHAGGQ | – | – | ACHN Renal | – |
| LIRAVSA | – | – | – | H460-Lung |
| LKAGLRS | OVCAR-5 Ovarian | – | – | – |
| LKLLSVP | – | HT-29 Colon | – | – |
| LKVRGVL | – | HT-29 Colon | – | – |
| LLGAGTP | IGROV1 Ovarian | – | – | – |
| LLGIGGS | SK-MEL-28 Melanoma | – | – | – |
| LLLLSGS | – | – | RXF393 Renal | – |
